Source: article PMC12354831 (Cell Death Discovery, 2025)

Assays:
U251-MG cells = test: CCK-8 IC50 determination in U251-MG cells with or without GLUT3 OE; type: cell-based, human; conditions: GLUT3 OE vs control, CCK-8, 24 h drug treatment
Experimental: (§1) The GBM cell line was seeded into a 96-well plate at a density of 5 × 10^3 cells per well and incubated at 37 °C in a humidified atmosphere containing 5% CO2 overnight. […] Following 24 h of drug treatment, 10 µL of CCK-8 reagent was added to each well, and the cells were incubated for an additional 1 h at 37 °C. The absorbance was then measured at 450 nm using a microplate reader.
(§2) In this study, the experimental groups were designated as Group A (cells treated with temozolomide (TMZ) or capecitabine (CAPE)), the control group as Group B (cells treated with DMSO), and the blank control group as Group C ([…]). The cell viability rate was calculated using the formula: (A-C)/(B-C) × 100%, where A, B, and C represent the absorbance values of Group A, Group B, and Group C, respectively.

U87-MG cells = test: CCK-8 IC50 determination in U87-MG cells with or without GLUT3 KD; type: cell-based, human; conditions: GLUT3 KD vs control, CCK-8, 24 h drug treatment
Experimental: as §1, §2

reduction of IC50 in GLUT3 overexpressing cells compared to control cells (U251-MG cells) | fold increase of IC50 on GLUT3 knockdown (U87-MG cells) | Structure (SMILES)
~ 81.7% | ~ 1.6 fold | Nc1ccn([C@@H]2O[C@H](CO)[C@@H](O)C2(F)F)c(=O)n1 [GEM, gemcitabine]
– | 4.3 fold | Nc1ccn([C@@H]2O[C@H](CO)[C@@H](O)[C@@H]2O)c(=O)n1 [cytarabine]
